Assay results reported in patent US20150023904A1, “NEW APPLICATION OF PVP-I” (priority 2013, published 2015).

Test system: patients suffering premature ejaculation
Assay: IELT before and after treatment in patients suffering premature ejaculation (Groups a, b, c)
Assay type: in vivo, human
Excerpt: 31 patients (27±5 years old) suffering premature ejaculation for 0.5 to 2 years who have abandoned other therapies for at least 1 month before participating in this experiment. With normal sexual desire, and without drug abuse experience, suspected drug use, or contact with radioactive materials, all these patients are composed of 10 with circumcision, 1 with renal insufficiency, 2 with unsatisfactory sexual life after marriage, and 1 with weak erection.
Taking intravaginal ejaculatin latency time (IELT) as the experimental parameter, if the time after insertion into the vagina is less than 1 minute, deem it as 1 minute. Take IELT for 3 times before and after the treatment, then calculate the mean value.
The experiment was performed by observation of three groups: a, b and c, wherein,
IELT shall be calculated after 1 month of drug taking respectively.
All the data were analyzed statistically with statistical software SPSS 18.0, and for single variables, t was inspected by taking the inspection standard α=0.05, with the inspection results as below: codes a, b and c represent different groups, the data following denote treatment time, 1 signifies IELT before treatment, 2 represents IELT after treatment and N as the number of patients.

Question: `CN[C@H]1CC[C@@H](c2ccc(Cl)c(Cl)c2)c2ccccc21` [sertraline] was tested. Which “number of patients with prolonged IELT after treatment” value (Group a N=4, Group b N=13, Group c N=14, from scatter plots FIG. 2-4) did it give?
Answer: 4

Question: What about the “IELT after treatment, mean value” (after treatment, IELT taken 3 times and averaged, calculated after 1 month of drug taking, IELT less than 1 minute deemed 1 minute) of the same molecule?
Answer: 3.75 min

Question: And the “IELT before treatment, mean value” (before treatment (baseline of the same group), IELT taken 3 times and averaged)?
Answer: 1.25 min

Question: What about the “patients with side effects or adverse reaction” value (lethargy, dysphoria, bruxism and nausea, disappeared 2 to 3 days after drug withdrawal) of the same molecule?
Answer: 5
